Experimental data published in patent publication US4443436A, “C-20-Modified macrolide derivatives of the macrolide antibiotics tylosin, desmycosin, macrocin, and lactenocin” (Eli Lilly and Company, priority 1982, dated 1984).
Values after ≈ are worked out from the molar mass of the structure shown.

Legend:
[1] = tested on: Streptococcus Group D X66; experiment: MIC, standard agar-dilution assay, Streptococcus Group D X66; type: cell-based; conditions: Streptococcus Group D X66; agar dilution
[2] = tested on: Staphylococcus epidermidis EPI1; experiment: MIC, standard agar-dilution assay, Staphylococcus epidermidis EPI1; type: cell-based; conditions: Staphylococcus epidermidis EPI1; agar dilution
[3] = tested on: Staphylococcus aureus X400; experiment: MIC, standard agar-dilution assay, Staphylococcus aureus X400; type: cell-based; conditions: Staphylococcus aureus X400; methicillin-resistant strain; agar dilution
Mycoplasma hyorhinis = experiment: MIC, broth-dilution microtiter test, Mycoplasma hyorhinis; type: cell-based; conditions: Mycoplasma hyorhinis; broth-dilution microtiter
Excerpt: (§1) The MIC's in Table X were obtained using conventional broth-dilution microtiter tests.

[4] = tested on: Pasteurella multocida 17E; experiment: MIC, broth-dilution microtiter test, Pasteurella multocida 17E; type: cell-based; conditions: Pasteurella multocida 17E; bovine isolate; broth-dilution microtiter
Excerpt: as §1

Mycoplasma hyopneumoniae = experiment: MIC, broth-dilution microtiter test, Mycoplasma hyopneumoniae; type: cell-based; conditions: Mycoplasma hyopneumoniae; broth-dilution microtiter
Excerpt: as §1

[5] = tested on: Staphylococcus aureus S13E; experiment: MIC, standard agar-dilution assay, Staphylococcus aureus S13E; type: cell-based; conditions: Staphylococcus aureus S13E; agar dilution
Mycoplasma gallisepticum = experiment: MIC, broth-dilution microtiter test, Mycoplasma gallisepticum; type: cell-based; conditions: Mycoplasma gallisepticum; broth-dilution microtiter
Excerpt: as §1

[6] = tested on: Streptococcus pneumoniae Park I; experiment: microbe, parasite or virus in culture; type: cell-based; conditions: Streptococcus pneumoniae Park I; agar dilution
Staphylococcus aureus = experiment: MIC, broth-dilution microtiter test, Staphylococcus aureus; type: cell-based; conditions: broth-dilution microtiter
Excerpt: as §1

[7] = tested on: Streptococcus pyogenes C203; experiment: MIC, standard agar-dilution assay, Streptococcus pyogenes C203; type: cell-based; conditions: Streptococcus pyogenes C203; agar dilution
[8] = tested on: Haemophilus influenzae Holt; experiment: MIC, standard agar-dilution assay, Haemophilus influenzae Holt; type: cell-based; conditions: Haemophilus influenzae Holt; ampicillin-sensitive strain; agar dilution
[9] = tested on: Staphylococcus epidermidis EPI2; experiment: MIC, standard agar-dilution assay, Staphylococcus epidermidis EPI2; type: cell-based; conditions: Staphylococcus epidermidis EPI2; agar dilution
Streptococcus bovis 80 = experiment: MIC, broth-dilution microtiter test, Streptococcus bovis 80; type: cell-based; conditions: Streptococcus bovis 80; broth-dilution microtiter
Excerpt: as §1

Pasteurella multocida = experiment: Subcutaneous treatment of Pasteurella multocida-infected chicks; type: in vivo, one-day-old chicks; conditions: 30 mg/kg × 2, 1 and 4 hours post-challenge
Protocol: Many of the C-20 modified derivatives of this invention have also shown in vivo antibacterial activity against infections induced by gram-negative bacteria. Tables XII and XIII summarize the results of tests in which illustrative compounds were evaluated against Pasteurella infection in one-day-old chicks. The compounds were administered parenterally or orally after challenge of the chicks with Pasteurella multocida (0.1 ml of a 10^-4 dilution of a twenty-hour tryptose broth culture of an avian P. multocida given subcutaneously). In these tests, unless indicated otherwise, all non-medicated infected chicks died within 24 hours of Pasteurella challenge. In the tests summarized in Table XII the compounds were administered by subcutaneous injection at a dosage of 30 mg/kg, 1 and 4 hours post-challenge of the chicks with P. multocida. In the test summarized in Table XIII the compounds were administered by gavage at 1 and 5 hours post-challenge of the chicks with P. multocida.

Mycoplasma synoviae = experiment: MIC, broth-dilution microtiter test, Mycoplasma synoviae; type: cell-based; conditions: Mycoplasma synoviae; broth-dilution microtiter
Excerpt: as §1

[10] = tested on: Staphylococcus aureus V41; experiment: MIC, standard agar-dilution assay, Staphylococcus aureus V41; type: cell-based; conditions: Staphylococcus aureus V41; penicillin-resistant strain; agar dilution
[11] = tested on: Haemophilus influenzae R252; experiment: MIC, standard agar-dilution assay, Haemophilus influenzae R252; type: cell-based; conditions: Haemophilus influenzae R252; ampicillin-resistant strain; agar dilution
[12] = tested on: Staphylococcus aureus X1.1; experiment: MIC, standard agar-dilution assay, Staphylococcus aureus X1.1; type: cell-based; conditions: Staphylococcus aureus X1.1; agar dilution
Streptococcus Group 9960 = experiment: MIC, standard agar-dilution assay, Streptococcus Group 9960; type: cell-based; conditions: Streptococcus Group 9960; agar dilution
[13] = tested on: Pasteurella hemolytica 22C; experiment: MIC, broth-dilution microtiter test, Pasteurella hemolytica 22C; type: cell-based; conditions: Pasteurella hemolytica 22C; broth-dilution microtiter
Excerpt: as §1

[14] = tested on: Streptococcus pyogenes C203; experiment: In vivo protection of mice experimentally infected with S. pyogenes C203; conditions: mice, doses given 1 and 4 hours post-infection
Protocol: The C-20 modified derivatives of this invention have shown in vivo antimicrobial activity against experimentally-induced infections in laboratory animals. When two doses of test compound were administered to mice experimentally infected with S. pyogenes C203, the activity observed was measured as an ED50 value [effective dose in mg/kg to protect 50% of the test animals: see Warren Wick, et al., J. Bacteriol. 81, 233-235 (1961)].

[15] = tested on: Pasteurella multocida 60A; experiment: MIC, broth-dilution microtiter test, Pasteurella multocida 60A; type: cell-based; conditions: Pasteurella multocida 60A; avian isolate; broth-dilution microtiter
Excerpt: as §1

| Structure (SMILES) | MIC [1] | MIC [2] | MIC [3] | MIC (Mycoplasma hyorhinis) | MIC [4] | MIC (Mycoplasma hyopneumoniae) | MIC [5] | MIC (Mycoplasma gallisepticum) | MIC [6] | MIC (Staphylococcus aureus) | MIC [7] | MIC [8] | MIC [9] | MIC (Streptococcus bovis 80) | Number of Deaths/Number Treated (Pasteurella multocida) | MIC (Mycoplasma synoviae) | MIC [10] | MIC [11] | MIC [12] | MIC (Streptococcus Group 9960) | also measured |
| --- | --- | --- | --- | --- | --- | --- | --- | --- | --- | --- | --- | --- | --- | --- | --- | --- | --- | --- | --- | --- | --- |
| CCOC(=O)NN(CCC1CC(C)C(=O)C=CC(C)=CC(COC2OC(C)C(O)C(OC)C2OC)C(CC)OC(=O)CC(O)C(C)C1OC1OC(C)C(O)C(N(C)C)C1O)C(=O)OCC (stereo not shown) [Compound 45, 20-DH-DO-20-[N-(Ethoxycarbonyl)-N-(ethoxycarbonylamino)]aminodesmycosin] | 16 µg/mL (≈ 17.2 µM) | 0.5 µg/mL (≈ 0.536 µM) | 1 µg/mL (≈ 1.07 µM) | -- (Not active at 50 mcg/ml, the highest level tested) | 25 µg/mL (≈ 26.8 µM) | 6.25 µg/mL (≈ 6.71 µM) | 0.5 µg/mL (≈ 0.536 µM) | 0.39 µg/mL (≈ 0.418 µM) | 0.5 µg/mL (≈ 0.536 µM) | 1.56 µg/mL (≈ 1.67 µM) | 2 µg/mL (≈ 2.15 µM) | 32 µg/mL (≈ 34.3 µM) | 0.25 µg/mL (≈ 0.268 µM) | 12.5 µg/mL (≈ 13.4 µM) | 9/10 | 6.25 µg/mL (≈ 6.71 µM) | 0.5 µg/mL (≈ 0.536 µM) | 32 µg/mL (≈ 34.3 µM) | 0.5 µg/mL (≈ 0.536 µM) | 8 µg/mL (≈ 8.58 µM) | MIC [13]: 50 µg/mL (≈ 53.6 µM); ED50, Oral [14]: > 50 mg/kg × 2; ED50, Subcutaneous [14]: 2.1 mg/kg × 2; MIC [15]: 25 µg/mL (≈ 26.8 µM) |
| CCC1OC(=O)CC(O)C(C)C(OC2OC(C)C(O)C(N(C)C)C2O)C(CCS(=O)(=O)c2ccc(C)cc2)CC(C)C(=O)C=CC(C)=CC1COC1OC(C)C(O)C(OC)C1OC (stereo not shown) [Compound 46, 20-DH-DO-20-(p-Toluenesulfonyl)desmycosin] | 8 µg/mL (≈ 8.77 µM) | 0.25 µg/mL (≈ 0.274 µM) | 0.25 µg/mL (≈ 0.274 µM) | 50 µg/mL (≈ 54.8 µM) | 12.5 µg/mL (≈ 13.7 µM) | 12.5 µg/mL (≈ 13.7 µM) | 0.25 µg/mL (≈ 0.274 µM) | 0.19 µg/mL (≈ 0.208 µM) | 1 µg/mL (≈ 1.1 µM) | 0.39 µg/mL (≈ 0.428 µM) | 1 µg/mL (≈ 1.1 µM) | 4 µg/mL (≈ 4.39 µM) | 0.12 µg/mL (≈ 0.132 µM) | 6.25 µg/mL (≈ 6.85 µM) | 0/10 | 0.78 µg/mL (≈ 0.855 µM) | 0.25 µg/mL (≈ 0.274 µM) | 8 µg/mL (≈ 8.77 µM) | 0.25 µg/mL (≈ 0.274 µM) | 8 µg/mL (≈ 8.77 µM) | MIC [13]: 12.5 µg/mL (≈ 13.7 µM); ED50, Oral [14]: > 50 mg/kg × 2; ED50, Subcutaneous [14]: 4.2 mg/kg × 2; MIC [15]: 12.5 µg/mL (≈ 13.7 µM) |
| CCC1OC(=O)CC(O)C(C)C(OC2OC(C)C(O)C(N(C)C)C2O)C(CCOc2cccnc2)CC(C)C(=O)C=CC(C)=CC1COC1OC(C)C(O)C(OC)C1OC (stereo not shown) [Compound 49, 20-DH-20-O-(Pyridin-3-yl)desmycosin] | 16 µg/mL (≈ 18.8 µM) | 0.5 µg/mL (≈ 0.588 µM) | 0.5 µg/mL (≈ 0.588 µM) | 50 µg/mL (≈ 58.8 µM) | 25 µg/mL (≈ 29.4 µM) | 25 µg/mL (≈ 29.4 µM) | 0.5 µg/mL (≈ 0.588 µM) | 0.78 µg/mL (≈ 0.917 µM) | 2 µg/mL (≈ 2.35 µM) | 1.56 µg/mL (≈ 1.83 µM) | 2 µg/mL (≈ 2.35 µM) | 16 µg/mL (≈ 18.8 µM) | 0.25 µg/mL (≈ 0.294 µM) | 25 µg/mL (≈ 29.4 µM) | 9/10 | 3.12 µg/mL (≈ 3.67 µM) | 0.5 µg/mL (≈ 0.588 µM) | 16 µg/mL (≈ 18.8 µM) | 0.5 µg/mL (≈ 0.588 µM) | 16 µg/mL (≈ 18.8 µM) | MIC [13]: 25 µg/mL (≈ 29.4 µM); MIC [15]: 25 µg/mL (≈ 29.4 µM) |
